# Literature values as cited in patent US9758831B2, “Methods of predicting clinical course and treating multiple sclerosis” (Tel HaShomer Medical Research Infrastructure and Services …, priority 2009, dated 2017).
# Tests used:
# [1] = system: RRN3/rpa43 complex; details: in vivo
# [2] = system: RRN3
# [3] = system: activated macrophages
# [4] = system: T lymphocyte
# [5] = system: dendritic cells
# [6] = system: Experimental Autoimmune Encephalomyelitis; details: in vivo
SMILES,formation of RRN3/rpa43 complex [1],association of RRN3 with RNA polymerase I [2],phosphorylation of RRN3 [2],TNF-a and IL-6 production [3],IFNγ production [4],T cell apoptosis [4],lymphocyte proliferation [4],IL2 and IL2 receptor expression ([4]; activated T cells),"maturation, antigen processing and presentation of dendritic cells [5]",T-cell inflammatory responses [6],effect on Experimental Autoimmune Encephalomyelitis [6]
C[C@@H]1C[C@@H]([C@H](O)CC2CC(=O)NC(=O)C2)C(=O)[C@@H](C)C1 [Cycloheximide],inhibits the formation of a RRN3/rpa43 complex in vivo,causes its dissociation from RNA polymerase I,inhibits the phosphorylation of RRN3,–,–,–,–,–,–,–,–
"CC(C)[C@]12O[C@H]1[C@@H]1O[C@]13[C@]1(O[C@H]1C[C@H]1C4=C(CC[C@@]13C)C(=O)OC4)[C@@H]2O [Triptolide, Trisoxireno(4b,5:6,7:8a,9)phenanthro(1,2-c)furan-1(3H)-one, 3b,4,4a,6,6a,7a,7b,8b,9,10-decahydro-6-hydroxy-8b-methyl-6a-(1-methylethyl)-, (3bS,4aS,5aS,6R,6aR,7aS,7bS,8aS,8bS)-]",–,–,–,can suppress,inhibition,T cell apoptosis induction,inhibition of lymphocyte prolipheration,decreased,can inhibit,modulates T-cell inflammatory responses,ameliorates Experimental Autoimmune Encephalomyelitis
